Where a name gives a salt, the structure may show the parent alone. Read-outs that look alike come from different tables or passages of the source.
What was measured:
[1] = test system: Human breast cancer cells (MCF7); assay: Antiproliferative activity on MCF7 cells (methylene blue method); type: cell-based; settings: MCF7 cells, 72 hours treatment, 660 nm absorbance after methylene blue staining, read-out: Antiproliferative activity IC50
Procedure: Human breast cancer cells (MCF7) were treated with samples of various concentrations of known HSP90 inhibitors (that is, geldanamycin, herbimycin, radicicol and PU3) and the compounds of the present invention for 72 hours to confirm the effect of the triazole derivatives of the present invention on the cell growth. The cell ratio after the drug treatment was evaluated by measuring 660 nm absorbance by a microplate reader (BioRad) after staining the cells with the methylene blue method.
Cells were distributed to wells of 96 well plates at 2000 cells per well and treated with drugs 24 hours later. Further, the medium was removed 72 hours later and the cells were fixed by adding 50 μl of methanol and standing at room temperature for 2 minutes. After removing methanol, 100 μl of a staining solution was added and stained for 30 minutes. After washing 3 times with 200 μl of distilled water, 3% HCl solution was added, and the 660 nm absorbance of methylene blue was measured by a microplate reader (BioRad).
Next, the antiproliferative activity rate (%) was obtained by the formula (2) below.
Antiproliferative activity rate(%)=((B−A)/B)×100 Formula (2)
wherein B is 660 nm absorbance of the sample when the compound of the present invention is not added, and A is 660 nm absorbance of the sample when the compound of the present invention is added.
From the concentration of the triazole derivative of the present invention and the antiproliferative activity rate, the concentration was obtained using the above formula, at which the cell growth was suppressed by 50% by comparing with the control, and termed an IC50 value.
The antiproliferative activity rate (%) was obtained for SH-b04, SH-b05 and SH-b06 described above by a similar manner to that of the triazole derivatives of the present invention.

[2] = target: rHSP90; assay: HSP90 binding assay (BIACORE SPR; inhibition of binding between rHSP90 and fixed herbimycin A); settings: concentration inhibiting binding between rHSP90 (50 μg/mL) and fixed herbimycin A by 50%, BIACORE-X SPR; read-out: HSP90 inhibitory activity IC50
Source text: The HSP90 binding assay system is a system for detecting the change of mass as SPR signal caused by the binding between herbimycin A fixed on a sensor chip and rHSP90 by BIACORE-X, in which 17-(6-amino hexylamino)herbimycin A is fixed through a carboxyl group on the surface of the sensor chip (CM5, BIACORE) on which carboxymethyldextran has been introduced. The method was according to the protocol of BIACORE. In addition, 17-(6-aminohexylamino)herbimycin A was synthesizes as described below.
rHSP90 (Stressgen Biotechnologies Corp., Victoria, BC Canada) at 50 μg/mL was exposed for 10 seconds to the surface of the sensor chip on which herbimycin A was fixed and the SPR signal (numerical value of interaction) was detected.
After mixing rHSP90 protein (5×10^−7M (50 μg/mL)) with the triazole derivative of the present invention, the mixture was exposed for 10 seconds to the surface of the sensor chip on which herbimycin A was fixed, and the SPR signal was measured by BIACORE-X.
Next, using following formula (1), the inhibitory activity (binding inhibition rate (%)) of the compound of the present invention to the binding between rHSP90 and fixed herbimycin A was obtained.
binding inhibition rate(%)=((b−s)/b)×100 Formula (1)
wherein b is the SPR signal when the compound of the present invention is not added to the sample: s is the SPR signal when the compound of the present invention is added to the sample.

| Compound | IC50 ([1]; Homo sapiens, MCF7, 72 h) [nM] | IC50 [2] [nM] | IC50 [1] [nM] |
| --- | --- | --- | --- |
| CC(C)c1cc(-c2nnc(S(C)(=O)=O)n2-c2ccc(C[N+]3([O-])CCOCC3)cc2)c(O)cc1O [SFN-a07, 4-isopropyl-6-{5-methanesulfonyl-4-[4-(morpholin-4-oxid-4-ylmethyl)-phenyl]-4H-[1,2,4]triazol-3-yl}benzene-1,3-diol] | 24000 | 320 |  |
| CC(C)c1cc(-c2nnc(S(C)(=O)=O)n2C(C)C)c(O)cc1O [SFN-a21, 4-isopropyl-6-(4-isopropyl-5-methanesulfonyl-4H-[1,2,4]triazol-3-yl)-benzene-1,3-diol] | 16000 | 230 |  |
| CC(C)c1cc(-c2nnc(S(C)(=O)=O)n2CCCN2CCOCC2)c(O)cc1O [SFN-a27, 4-isopropyl-6-[5-methanesulfonyl-4-[3-(molpholin-4-yl)-propyl]-4H-[1,2,4]triazol-3-yl]-benzene-1,3-diol] | > 20000 | 1600 |  |
| CC(C)c1cc(-c2nnc(S(C)(=O)=O)n2CCc2ccc[n+]([O-])c2)c(O)cc1O [SFN-a29, 5-(2,4-dihydroxy-5-isopropylphenyl)-4-[2-(1-oxopyridin-3-yl)ethyl]-3-methanesulfonyl-4H-[1,2,4]triazole] | > 20000 | 3600 |  |
| CC(C)c1cc(-c2nnc(S(C)(=O)=O)n2CCCN2CCCC2=O)c(O)cc1O [SFN-a30] | > 20000 | 2400 |  |
| COCCn1c(-c2cc(C(C)C)c(O)cc2O)nnc1S(C)(=O)=O [SFN-a32, 4-isopropyl-6-[5-methanesulfonyl-4-(2-methoxy-ethyl)-4H-[1,2,4]triazol-3-yl]-benzene-1,3-diol] | > 20000 | 1900 |  |
| CC(C)c1cc(-c2nnc(S(C)(=O)=O)n2C(CO)CO)c(O)cc1O [SFN-a33, 4-[4-(2-hydroxy-1-hydroxymethyl-ethyl)-5-methanesulfonyl-4H-[1,2,4]triazol-3-yl]-6-isopropyl-benzene-1,3-diol] | 15000 | 1300 |  |
| CC(C)c1cc(-c2nnc([S+](C)[O-])n2-c2ccc(C[N+]3([O-])CCOCC3)cc2)c(O)cc1O (stereo not shown) [SFX-a07-TF, 4-isopropyl-6-{5-methylsulfinyl-4-[4-(morpholin-4-oxid-4-ylmethyl)-phenyl]-4H-[1,2,4]triazol-3-yl}-benzene-1,3-diol trifluoroacetate] | 12000 | 64 |  |
| COc1ccc(-n2c(-c3cc(C(C)C)c(O)cc3O)nnc2[S+](C)[O-])cc1 (stereo not shown) [SFX-a08, 4-isopropyl-6-[5-methylsulfinyl-4-(4-methoxy-phenyl)-4H-[1,2,4]triazol-3-yl]-benzene-1,3-diol] | 360 | 120 |  |
| CC(C)c1cc(-c2n[nH]c(=S)n2-c2ccc(N3CCOCC3)cc2)c(O)cc1O [SH-a01, 4-isopropyl-6-{5-mercapto-4-[4-(morpholin-4-yl)-phenyl]-4H-[1,2,4]triazol-3-yl}-benzene-1,3-diol] |  | 140 | 14 |
| CC(C)c1cc(-c2n[nH]c(=S)n2-c2ccc(N3CCOCC3)cc2)c(O)cc1O [SH-a01-TF, 4-isopropyl-6-{5-mercapto-4-[4-(morpholin-4-yl)-phenyl]-4H-[1,2,4]triazol-3-yl}-benzene-1,3-diol] | 20 | 190 |  |
| CC(C)c1cc(-c2n[nH]c(=S)n2-c2ccc(Br)cc2)c(O)cc1O [SH-a03, 4-[4-(4-bromo-phenyl)-5-mercapto-4H-[1,2,4]triazol-3-yl]-6-isopropyl-benzene-1,3-diol] | 150 | 150 |  |
| COc1ccc(-n2c(-c3cc(C(C)C)c(O)cc3O)n[nH]c2=S)cc1 [SH-a08, 5-(2,4-dihydroxy-5-isopropyl-phenyl)-4-(4-methoxy-phenyl)-2,4-dihydro-[1,2,4]-triazol-3-thione] | 57 | 85 |  |
| CC(C)c1cc(-c2n[nH]c(=S)n2-c2ccccc2)c(O)cc1O [SH-a15] | 40 | 250 |  |
| CC(C)c1cc(-c2n[nH]c(=S)n2-c2cccnc2)c(O)cc1O [SH-a16] | 240 | 140 |  |
| CC(C)c1cc(-c2n[nH]c(=S)n2C(C)C)c(O)cc1O [SH-a21, 5-(2,4-dihydroxy-5-isopropyl-phenyl)-4-isopropyl-2,4-dihydro-[1,2,4]-triazol-3-thione] | 400 | 220 |  |
| CC(C)Cn1c(-c2cc(C(C)C)c(O)cc2O)n[nH]c1=S [SH-a22, 5-(2,4-dihydroxy-5-isopropyl-phenyl)-4-isobutyl-2,4-dihydro-[1,2,4]triazol-3-thione] | 450 | 270 |  |
| CC(C)c1cc(-c2n[nH]c(=S)n2C2CCCCC2)c(O)cc1O [SH-a23, 5-(2,4-dihydroxy-5-isopropyl-phenyl)-4-cyclohexyl-2,4-dihydro-[1,2,4]triazol-3-thione] | 330 | 420 |  |
| CC(C)c1cc(-c2n[nH]c(=S)n2C2CCN(Cc3ccccc3)CC2)c(O)cc1O [SH-a25•TFA] | 890 | 1000 |  |
| CC(C)c1cc(-c2n[nH]c(=S)n2CCc2cccnc2)c(O)cc1O [SH-a28, 5-(2,4-dihydroxy-5-isopropylphenyl)-4-(2-pyridin-3-ylethyl)-2,4-dihydro-[1,2,4]triazol-4-thione] | 7200 | 430 |  |
| CC(C)c1cc(-c2n[nH]c(=S)n2CC2CCCO2)c(O)cc1O (stereo not shown) [SH-a31, 5-(2,4-dihydroxy-5-isopropylphenyl)-4-(tetrahydrofuran-2-ylmethyl)-2,4-dihydro-[1,2,4]triazol-3-thione] | 550 | 310 |  |
| COCCn1c(-c2cc(C(C)C)c(O)cc2O)n[nH]c1=S [SH-a32, 5-(2,4-dihydroxy-5-isopropyl-phenyl)-4-(2-methoxy-ethyl)-2,4-dihydro-[1,2,4]triazol-3-thione] | 550 | 240 |  |
| Oc1ccc(-c2nnc(S)n2-c2ccccc2)c(O)c1 [SH-b04, reference compound] | 5700 | 170 |  |
| Cc1ccccc1-n1c(S)nnc1-c1ccc(O)cc1O [SH-b05, reference compound] | 9000 | 200 |  |
| COc1ccc(OC)c(-n2c(S)nnc2-c2ccc(O)cc2O)c1 [SH-b06, reference compound] | 77000 | 690 |  |
| CC#CCc1cc(-c2n[nH]c(=S)n2-c2ccc(CN3CCOCC3)cc2)c(O)cc1O [SH-c02-TF, 4-(but-2-ynyl)-6-{5-mercapto-4-[4-morpholin-4-ylmethyl]-phenyl}-4H-[1,2,4]trioazol-3-yl]-benzene-1,3-diol trifluoroacetate] | 480 | 250 |  |
| COc1ccc(-n2c(-c3cc(C(C)(C)C)c(O)cc3O)n[nH]c2=S)cc1 [SH-f08] | 3000 | 560 |  |
| CSc1nnc(-c2cc(C(C)C)c(O)cc2O)n1-c1ccc(CN2CCOCC2)cc1 [SMe-a02-TF, 4-isopropyl-6-{5-methylsulfanyl-4-[4-(morpholin-4-ylmethyl)-phenyl]-4H-[1,2,4]triazol-3-yl}-benzene-1,3-diol trifluoroacetate] | 530 | 470 |  |
| COc1ccc(-n2c(SCCN(C)C)nnc2-c2cc(C(C)C)c(O)cc2O)cc1 [SR2-a08, 4-[5-(3-dimethylamino-ethylsulfanyl)-4-(4-methoxy-phenyl)-4H-[1,2,4]triazol-3-yl]-6-isopropyl-benzene-1,3-diol] | 1800 | 740 |  |

Reference: US20130116251A1, “Novel HSP90 Inhibitor” (Nippon Kayaku Kabushiki Kaisha, priority 2005, published 2013)
